Results published in PMC7326067, “The Critical Role of Tryptophan in the Antimicrobial Activity and Cell Toxicity of the Duck Antimicrobial Peptide DCATH” (Frontiers in Microbiology, 2020).
Where no end group is shown, it is not given here.

What was measured:
E. coli UB1005 = assay type: cell-based, Escherichia coli; conditions: UB1005, 24 h
Procedure: (§1) Three types of Gram-positive bacteria (Staphylococcus epidermidis ATCC 12228, Staphylococcus aureus 29213 and Enterococcus faecalis ATCC 29212) and four types of Gram-negative bacteria (Escherichia coli UB1005, Escherichia coli ATCC 25922, Salmonella typhimurium ATCC 14028 and Salmonella pullorum C79–13) preserved in our lab were cultured in the medium of Muller-Hinton broth (MHB) medium (1.75% casamino acid, 0.2% beef extract, 0.15% soluble starch, pH 7.0). The murine macrophage cell line RAW 264.7 cells were procured from the American Type Culture Collection (Manassas, VA, United States) and cultured in DMEM containing 10% fetal bovine serum […], penicillin (100 units/ml) and streptomycin (100 units/ml) in 5% CO2 at 37°C.
(§2) The antimicrobial activity of peptides was examined against representative strains of Gram-positive bacteria (S. aureus ATCC 29213, S. epidermidis ATCC 12228 and E. faecalis ATCC 29212) and Gram-negative bacteria (E. coli ATCC 25922, E. coli UB1005, S. pullorum C79–13, and S. typhimurium ATCC 14028) which were cultured in MHB medium. Antimicrobial activity assay was performed according to a modified version of broth microdilution method ([Gao et al., 2015]). When grown to an OD600 of 0.4, the bacterial stains cultured in MHB were diluted to a final concentration of about 1 × 10^5 CFU/ml. Fifty microliter of microbial solution and 50 μl of two-fold diluted concentrations of peptides [0.2% (w/v) bovine serum albumin, 0.01% (v/v) acetic acid] were mixed in the sterile 96-well plate and cultured at 37°C for 24 h. MICs were identified as the lowest peptide concentration that no bacteria growth was observed by OD determination (492 nm). Each experiment was performed in triplicate. The geometric mean (GM) of the MICs of a peptide was calculated on the MIC values of the peptide against all tested bacteria, and was used to evaluate the antimicrobial activity of the peptide. The therapeutic index (TI) was defined as the ratio of the minimum hemolytic concentration (MHC) to the GM and was used to measure the peptide cell selectivity toward the component with negative charge of bacterial cell membranes over the zwitterionic membranes mammalian cells. TI was calculated as the ratio of the HC10 (the peptide concentration needed to reach 10% lysis of hRBCs) value to the GM (TI = HC10/GM).

E. coli ATCC 25922 = assay type: cell-based, Escherichia coli; conditions: ATCC 25922, 24 h
Procedure: as §1, §2

[1] = tested on: Human red blood cells (hRBCs); assay type: cell-based; conditions: for MHC (minimum hemolytic concentration): red cells of human, 1 h
Procedure: The hemolytic activity assay of these peptides was performed according to the method of [Gao et al. (2015)]. Human red blood cells (hRBCs) donated by a healthy adult were collected by centrifugation and washed by phosphate-buffered saline (PBS) solution (pH 7.2). 1% (v/v) suspension of hRBCs in PBS was incubated with different concentrations of peptides dissolved in PBS for 1 h at 37°C. Absorbance in the supernatant was monitored at 405 nm. hRBCs in 0.1% Triton X-100 and PBS were used as positive and negative controls, respectively. The hemolysis percentage was calculated as follows:
%hemolysis=[A-sampleA]blank/[A-TritonA]blank×100.
FIGURE 1 Hemolytic and toxicity activity of the peptides. (A,B) Hemolytic activity against hRBCs. (C,D) Toxicity activity against RAW264.7 cells. Hemolytic activity was evaluated by incubating individual peptides in serial 2-fold dilutions with freshly isolated hRBCs at 37°C for 1 h, followed by measuring the released hemoglobin at 405 nm. For negative and positive controls, hRBCs in PBS and 0.1% Triton X-100 were used, respectively. Toxicity activity of the peptides against RAW264.7 was determined using MTT method. The peptides were incubated with RAW264.7 in a 96-well microtiter plate. After incubation with MTT, the supernatant was discarded and DMSO was added and the optical density (OD) at 570 nm was measured.

S. aureus ATCC 29213 = assay type: cell-based, Staphylococcus aureus; conditions: ATCC 29213, 24 h
Procedure: as §1, §2

all tested bacteria = assay: MIC over all tested bacteria (geometric mean); assay type: cell-based; conditions: calculated on the MIC values against all tested bacteria (7 strains)
Procedure: as §1, §2

[2] = tested on: S. typhimurium ATCC 14028; assay type: cell-based, Salmonella typhimurium; conditions: ATCC 14028, 24 h
Procedure: as §1, §2

E. faecalis ATCC 29212 = assay type: cell-based, Enterococcus faecalis; conditions: ATCC 29212, 24 h
Procedure: as §1, §2

S. pullorum C79-13 = assay type: cell-based, Salmonella pullorum; conditions: C79-13, 24 h
Procedure: as §1, §2

[3] = tested on: S. epidermidis ATCC 12228; assay type: cell-based, Staphylococcus epidermidis; conditions: ATCC 12228, 24 h
Procedure: as §1, §2

[4] = tested on: BALB/c mice challenged with lethal dose of LPS; assay: Protection of mice from LPS-induced lethal infection; assay type: in vivo; conditions: male BALB/c mice, LPS 20 mg/kg i.p.; PMB 2.5 mg/kg or peptide 10 mg/kg i.p. 1 h after challenge
Procedure: The 6–8 week-old male BALB/c mice (purchased from Charles River Laboratories, Beijing, China) were used to investigate the protective effect in vivo of peptides on LPS-induced infection. All animals were raised under specific pathogen-free conditions and the protocol was authorized by the Animal Care Committee of Northeast Agricultural University. Mice were divided into four groups (12 mice per group). 1 h after a challenge with a lethal dose of LPS intraperitoneal injection (20 mg/kg⋅body weight), 4 groups of mice were injected intraperitoneally with 0.5 ml PBS, PMB (2.5 mg/kg⋅body weight), dCATH(1–16) or dCATH(5–20) (10 mg/kg⋅body weight). General behavior, onset and course of clinical disease and mortality of mice were observed every 12 h for a period of 7 days.
FIGURE 8 Survival of mice from LPS-induced lethal infection by dCATH(1–16) or dCATH(5–20). Mice were subjected to a lethal dose of LPS, followed by i.p. injection of CATH(1–16) or dCATH(5–20) at 10 mg/kg or an equal volume of PBS as controls (n = 12). Survival was recorded every 12 h over 7 days.

Substance	MIC E. coli UB1005 (E. coli UB1005) [µM]	MIC E. coli ATCC 25922 (E. coli ATCC 25922) [µM]	hemolytic activity (in words) [1]	MHC (minimum hemolytic concentration) [1] [µM]	MIC S. aureus ATCC 29213 (S. aureus ATCC 29213) [µM]	GM (geometric mean of the MICs) (all tested bacteria) [µM]	MIC S. typhimurium ATCC 14028 [2] [µM]	MIC E. faecalis ATCC 29212 (E. faecalis ATCC 29212) [µM]	MIC S. pullorum C79-13 (S. pullorum C79-13) [µM]	MIC S. epidermidis ATCC 12228 [3] [µM]	onset and symptoms of disease (in words) [4]
FWQLVPLAIKIYRAWKRR-NH2 [dCATH(3–20)]	2	1	obvious hemolytic activity	4	2	1.81	4	2	2	1	–
KRFAQLVPLAIKIYRA-NH2 [dCATH(1–16)-4A]	32	16	negligible hemolytic activity	–	128	47.55	64	32	64	64	–
KRFAQLVPLAIKIYRAAKRR-NH2 [dCATH-AA]	16	32	negligible hemolytic activity	–	64	39.01	64	32	32	64	–
KRFWQLVPLAIKIYRA-NH2 [dCATH(1–16)]	4	2	–	–	8	4.88	4	8	4	8	–
KRFWQLVPLAIKIYRAW-NH2 [dCATH(1–17)]	1	1	obvious hemolytic activity	8	2	2.21	4	2	4	4	–
KRFWQLVPLAIKIYRAWK-NH2 [dCATH(1–18)]	2	1	obvious hemolytic activity	8	2	1.81	2	2	2	2	–
KRFWQLVPLAIKIYRAWKRR-NH2 [dCATH]	2	2	obvious hemolytic activity	4	4	3.62	8	4	4	4	–
QLVPLAIKIYRA-NH2 [dCATH(5–16)]	128	64	negligible hemolytic activity	–	–	190.21	–	–	–	–	–
QLVPLAIKIYRAAKRR-NH2 [dCATH(5–20)-17A]	–	64	negligible hemolytic activity	–	32	70.66	64	32	–	32	–
QLVPLAIKIYRAWKRR-NH2 [dCATH(5–20)]	4	1	–	128	2	3.28	4	4	8	4	–
WQLVPLAIKIYRAWKRR-NH2 [dCATH(4–20)]	4	1	obvious hemolytic activity	16	2	2.44	2	2	4	4	–
polymyxin B [PMB]	–	–	–	–	–	–	–	–	–	–	delayed the onset of disease of mice with less severe symptoms
